# Reference: US9446019B2, “Sparstolonin B based pharmaceutical agent for neuroblastoma treatment” (University of South Carolina, priority 2013, dated 2016)
# Assays:
# [1] = ROS-generating activity in cell-free system (H2DCFDA, HRP); format: biochemical; details: GSH 0.25 μM or 2.5 μM added to SsnB 10 μM + H2DCFDA + HRP
# Method: FIG. 2D and FIG. 2E illustrate the ROS generating capacity of SsnB evaluated in a cell-free system containing H2DCFDA (25 μM), horseradish peroxidase (HRP, 5 units/ml), SsnB (10 μM) and glutathione (GSH, 0.25 or 2.5 μM) alone or in various combinations. Optical density (O.D.) at 540 nm were taken at different time points and plotted.
# In a reaction system, after the removal of acetate group by cellular esterases and oxidation by reactive oxygen species, the non-fluorescent carboxy-H2DCFDA dye is oxidized to fluorescent molecule carboxy-DCF. To measure the ROS-generating activity of SsnB, the oxidation of carboxy-H2DCFDA dye was monitored in a cell-free system containing carboxy-H2DCFDA dye, horseradish peroxidase (HRP) and SsnB at 540 nm. HRP was used to supply esterase since without esterase carboxy-H2DCFDA is not sensitive to oxidant. […] After addition of HRP (5 units/ml) in the reaction mixture containing SsnB (10 μM)+H2DCFDA dye (25 μM), the OD value increased by 2% in the first 240 sec and further increased by 8% after 15 min compared to H2DCFDA+HRP reaction, indicating the increased oxidation of H2DCFDA to the fluorescent compound.
# [2] = test system: human neuroblastoma cell lines (SH-SY5Y, SKNF-1, NGP, IMR-32 and SK-N-BE(2) cells); experiment: MTT cell viability assay; format: cell-based; details: NAC 1 mM or 5 mM pretreatment 1 h, then SsnB 10 μM; p<0.05 vs SsnB alone
# Text: Human neuroblastoma cell lines (SH-SY5Y, IMR-32, SK-N-BE(2) and SKNF-1 cells) were obtained from The American Type Culture Collection (ATCC; Manassas, Va.), and NGP cells were kind gift from Garrett M. Brodeur (The Children's Hospital of Philadelphia, Philadelphia, Pa.). All cell lines were maintained in complete Dulbecco's Modified Eagle's Medium (DMEM) supplemented with 10% fetal bovine serum (FBS; Atlanta Biologicals, Lawrenceville, Ga.) and 1× antibiotic-antimycotic solution (containing 100 U/ml penicillin, 100 μg/ml streptomycin and 0.25 μg/ml amphotericin B), and grown at 37° C. in a humidified incubator with 5% CO2. Stock solution of SsnB was prepared in dimethyl sulfoxide (DMSO). Cells treated with different concentrations of SsnB in DMEM with 10% FBS were grown for subsequent days. Cells treated with equal volume of DMSO were used as control.
# The viability of SsnB-treated cells was determined by MTT assay following manufacturer's instructions (Roche diagnostics corporation, Indianapolis, Ind.). Briefly, cells (1×10^4 cells/well) grown in 96-well cell culture plate were incubated with or without SsnB in 100 μl of complete culture medium with 10% FBS. After treatments, cells were incubated with 10 μl of MTT reagent for 4 h and then incubated overnight in solubilization buffer (100 μl) at 37° C. Absorbance of the formazan product was read at 575 nm in spectramax spectrophotometer (Molecular Devices, Sunnyvale, Calif.). A reference wavelength of 690 nm was used to detect background. The measured absorption directly correlated with the number of viable cells in culture. The experiments were performed in triplicate and repeated at least three times.
# MTT assay was carried out to examine the effects of SsnB on viability of all the above listed neuroblastoma cells. After 2 days (SH-SY5Y and IMR-32), 3 days (NGP cells) or 4 days (SKNF-1 and SK-N-BE(2) cells) treatment with SsnB (1, 5, 10 and 20 μM), MTT cell viability assays were performed.
# [3] = test system: reactive oxygen species in neuroblastoma cells; experiment: ROS generation, H2DCFDA fluorometry assay; format: cell-based, human; details: NAC 1 and 5 mM, SsnB 10 μM; p<0.05 vs SsnB alone
# Method: The production of reactive oxygen species (ROS) in SsnB-treated neuroblastoma cells was detected by a cell-permeable fluorescence probe H2DCFDA (carboxy-2′,7′-dichlorodihydrofluorescein diacetate) according to the manufacturer's instructions (Invitrogen, Carlsbad, Calif.). Briefly, neuroblastoma cells were cultured in DMEM with 10% FBS in Lab-TekII chamber slides (Fisher Scientific, Pittsburg, Pa.) and treated with SsnB for 2 days (SH-SY5Y and IMR-32 cells), 3 days (NGP cell) or 4 days (SKNF-1 and SK-N-BE(2) cells). After treatments, cells were washed with Hank's buffered salt solution (HBSS; Thermo Scientific, Waltham, Mass.) and incubated with 25 μM of carboxy-H2DCFDA dye for 30 min at 37° C. in dark. Nuclei were counterstained with DAPI. Cells were washed three times with HBSS, mounted with Vectashield mounting medium (Vector Laboratories), and immediately examined under Nikon-E600 fluorescence microscopy equipped with fluorescein isothiocyanate (FITC) filter. Oxidation of H2DCFDA probe occurs almost exclusively in the cytosol, and generates a fluorescence that is proportional to ROS generation in that cell. As a negative control, cells without H2DCFDA dye were used to detect autofluorescence. The fluorometric analysis to detect generation of ROS was performed. Briefly, after treatments with SsnB as mentioned above, cells were labeled with carboxy-H2DCFDA dye (25 μM) for 30 min at 37° C. Cells were trypsinized, washed, and re-suspended in PBS and fluorescence intensity was monitored at excitation wavelength 485 nm and emission wavelength 530 nm with a spectramax spectrophotometer (Molecular Devices, Sunnyvale, Calif.).
# SsnB-induced generation of ROS was also evaluated by fluorometry assay. Neuroblastoma cells as treated above were incubated with H2DCFDA dye for 30 min and the fluorescence intensity was measured at 485 nm (excitation wavelength) and 530 nm (emission wavelength).
# [4] = test system: caspase-3 in neuroblastoma cells; experiment: Cleaved caspase-3 by immunofluorescence and Western blotting; format: cell-based, human; details: NAC 1 and 5 mM pretreatment, SsnB 10 μM; SH-SY5Y and SK-N-BE(2) cells
# Method: For immunofluorescence staining, cells grown in Lab-TekII chamber slides (Fisher Scientific, Pittsburgh, Pa.) were treated with SsnB in complete culture medium. After treatments, cells were washed with 1×PBS, fixed with 4% paraformaldehyde/PBS for 20 min, and permeabilized with 0.2% Triton X-100/PBS for 10 min at room temperature. Cells were washed with 1×PBS for 3 times and blocked with 5% immunoglobulin (IgG) free-bovine serum albumin (BSA; Jackson ImmunoResearch Laboratories, West Grove, Pa.) in 1×PBS for overnight at 4° C. Cells were incubated with antibody raised against active form of caspase-3 (Cell Signaling Technology, Danvers, Mass.) diluted in 2.5% BSA/PBS for overnight at 4° C. Primary antibodies were detected with secondary antibodies conjugated with fluorescein isothiocyanate (FITC; Santa Cruz Biotechnology, Dallas, Tex.) for 2 h at room temperature. After washing with 1×PBS, cells were mounted with antifade Vectashield mounting media (Vector Laboratories, Burlingame, Calif.), and signals were visualized under Nikon-E600 fluorescence microscope. Nuclei were counterstained with 4′,6-diamidino-2-phenylindole (DAPI; Sigma).
# After treatment with SsnB, cells were collected, washed with 1×PBS, and lysed with 1× cell lysis buffer (Cell Signaling Technology, Danvers, Mass.) containing phenylmethylsulfonyl fluoride (PMSF) and protease inhibitors (aprotinin and leupeptin) for 30 min on ice, and centrifuged at 12000×rpm for 10 min at 4° C. Supernatant (total cell protein) was collected and stored at −80° C. Protein concentration was determined by bicinchoninic acid method using BCA protein assay kit (Pierce/ThermoScientific, Waltham, Mass.). Equal amount of proteins were diluted with 5× Laemmli samples loading buffer and boiled for five minutes. The proteins were subjected to sodium dodecyl sulfate (SDS)-polyacrylamide gel electrophoresis and analyzed by Western blots. Briefly, after electrophoresis, proteins were transferred on polyvinylidene difluoride (PVDF) membrane at 100 volt for 3 h in cold room. Membrane was blocked with 5% non-fat dry milk/TBST (20 mM Tris-Cl, pH 7.4; 150 mM NaCl with 0.1% Tween-20) for 4 h at room temperature followed by incubation in primary antibodies diluted in 2.5% non-fat dry milk/TBST for overnight at 4° C. After washing with TBST, membrane was incubated with secondary antibodies (horseradish peroxidase-conjugated goat anti-rabbit or goat anti-mouse IgG; Santa Cruz Biotechnology, Dallas, Tex.) diluted in 2.5% non-fat dry milk/TBST for 3 h at room temperature. Signals were detected by chemiluminiscence detection kit (Pierce/Thermo Fisher Scientific, Rockford, Ill.). Primary antibodies used were cleaved caspase-3 and β-actin (Cell Signaling Technology), N-myc and p53 (Santa Cruz Biotechnology).
# At cellular level, mitochondria- or receptor (Fas/FasL)-mediated pathways activate caspase signaling cascade which in turn induces DNA damage and initiates programmed cell death (apoptosis). To determine whether SsnB-induced cell death is mediated by caspase activation, Western blotting as well as immunofluorescence assay were performed to detect the active form of caspase-3 in neuroblastoma cells treated with SsnB for 2 days (SH-SY5Y and IMR-32 cells), 3 days (NGP cells) or 4 days (SKNF-1 and SK-N-BE(2) cells). The number of cleaved caspase-3 positive cells were quantitated by ImageJ programme and plotted. […]
Structure (SMILES),OD value on addition of GSH [1],viability of SsnB-treated cells [2],ROS levels in SsnB-treated cells [3],activation of caspase-3 in SsnB-treated cells [4]
"N[C@@H](CCC(=O)N[C@@H](CS)C(=O)NCC(=O)O)C(=O)O [GSH, glutathione, reference compound]",lowers the OD value in a dose dependent manner,–,–,–
"CC(=O)NCCSSCCN [NAC, N-acetylcystamine, reference compound]",–,significantly increased the viability,significantly reduced ROS levels,inhibited the activation of caspase-3
